Test results taken from paper PMC12647645, “Structural interactions of BWC0977 with Klebsiella pneumoniae topoisomerase IV and biochemical basis of its broad-spectrum activity” (Communications Biology, 2025).
≈ marks a conversion by molar mass, not a printed value. Where “and” joins values, the source holds several entries; their conditions need not be identical. Equal values may be shown once. Read-outs that look alike come from different tables or passages of the source.

Tests used:
K. pneumoniae BAA 2784 = test: microbe, parasite or virus in culture; assay type: cell-based; settings: Klebsiella pneumoniae, BAA2784
A. baumannii ATCC 19606 [1] = test: In vitro spontaneous resistance frequency; assay type: cell-based
Method: (§1) Spontaneous resistance frequencies to BWC0977 were evaluated in E. coli ATCC 25922, P. aeruginosa ATCC 27853, and A. baumannii ATCC 19606. Mid-logarithmic phase cultures (~10^9 CFU/mL) were plated onto Luria-Bertani agar containing BWC0977 at 4×, 8×, and 16× the respective MICs. Plates were incubated at 37 °C for 24–36 h, and resistance frequencies were estimated by counting colony-forming units (CFUs) on the drug-containing plates. MICs of the isolated colonies were determined, and the gyrA, gyrB, parC, and parE genes were sequenced to assess for target-site mutations.

E. coli ATCC 25922 [2] = test: In vitro spontaneous resistance frequency; assay type: cell-based
Method: as §1

P. aeruginosa ATCC 27853 [3] = settings: 4× MIC
Method: as §1

[4] = tested on: E. coli MG1655 GyrA D82N, ParC D79N; test: microbe, parasite or virus in culture; assay type: cell-based; settings: Escherichia coli
S. aureus gyrase = S. aureus gyrase (Staphylococcus aureus, UniProt P0A0K8+P20831); test: biochemical
E. coli ATCC 25922 [5] = test: Resistant mutant generation by serial passage method; assay type: cell-based; settings: Escherichia coli, read-out: MIC, serial passage
P. aeruginosa ATCC 27853 [6] = test: MIC broth microdilution; assay type: cell-based; settings: Pseudomonas aeruginosa, ATCC27853
[7] = target: E. coli GyrA M120K mutant gyrase (Escherichia coli, UniProt P0AES4+P0AES6, M120K); test: biochemical; assay type: biochemical; settings: for Gyrase supercoiling inhibition response: GyrA M120K gyrase
P. aeruginosa BAA 2794 = test: microbe, parasite or virus in culture; assay type: cell-based; settings: Pseudomonas aeruginosa, BAA2794
A. baumannii = tested on: A. baumannii; set-up: method as in ref 6 (Hameed P et al., 2024); settings: ref 6 (Hameed P et al., 2024); cited from earlier work
A. baumannii ATCC 19606 [8] = test: MIC broth microdilution; assay type: cell-based; settings: Acinetobacter baumannii
S. aureus ATCC 29213 = test: MIC broth microdilution; assay type: cell-based; settings: Staphylococcus aureus, ATCC29213
K. pneumoniae BAA 2782 = test: microbe, parasite or virus in culture; assay type: cell-based; settings: Klebsiella pneumoniae, BAA2782
P. aeruginosa BAA 2797 = test: microbe, parasite or virus in culture; assay type: cell-based; settings: Pseudomonas aeruginosa, BAA2797
[9] = target: E. coli GyrA D82N mutant gyrase (Escherichia coli, UniProt P0AES4+P0AES6, D82N); test: biochemical; assay type: biochemical; settings: for Gyrase supercoiling inhibition response: GyrA D82N gyrase
[10] = tested on: E. coli MG1655 GyrA WT, ParC D79N; test: microbe, parasite or virus in culture; assay type: cell-based; settings: Escherichia coli
E. faecalis ATCC 29212 = test: MIC broth microdilution; assay type: cell-based; settings: Enterococcus faecalis, ATCC29212
P. aeruginosa = tested on: P. aeruginosa; set-up: method as in ref 6 (Hameed P et al., 2024); settings: ref 6 (Hameed P et al., 2024); cited from earlier work
E. coli topoisomerase IV = target: T1, E. coli topoisomerase IV (Escherichia coli, UniProt P0AFI2+P20083); test: Topoisomerase IV cleavage-complex assay; assay type: biochemical
T1 construct: purchased Inspiralis
Method: Reactions were stopped by adding 3.8 μL of a stop solution containing 0.8 μL Proteinase K (20 mg/mL) and 3 μL SDS (2%), followed by incubation at 37 °C for 60 min. Afterward, 4 μL of STEB loading buffer was added, and samples were run on pre-stained 0.8% agarose gels containing 0.4 μg/mL ethidium bromide. […] The % nicked and linear DNA formed with varying compound concentrations was plotted for comparison.

[11] = tested on: A. baumannii ATCC 19606 resistant mutant colonies (mutant 1-5); test: microbe, parasite or virus in culture; assay type: cell-based; settings: Acinetobacter baumannii
[12] = compound 4.444 µM, source data Fig 6A/6B, 4.444 µM
[13] = compound 13.333 µM, source data Fig 6A/6B, 13.333 µM
[14] = compound 40 µM, source data Fig 6A/6B, 40 µM
[15] = compound 120 µM, source data Fig 6A/6B, 120 µM

With Cn1c(=O)ccc2ccc(F)c(CCNC[C@H]3CN(c4cnc5c(n4)NC(=O)CO5)C(=O)O3)c21 [BWC0977] the MIC (K. pneumoniae BAA 2784) was 0.125 µg/mL (≈ 0.267 µM), the “number of resistant mutant colonies” value (A. baumannii ATCC 19606 [1]; 0.6 μg/mL (4× MIC)) was “five” and the resistance frequency (A. baumannii ATCC 19606 [1]; 4× MIC) was “less than 1 × 10^−9”. For the same compound, the “MIC increase of resistant colonies” value (A. baumannii ATCC 19606 [1]; colonies selected at 4× MIC of the same compound) was “four-fold”, the resistance frequency (E. coli ATCC 25922 [2]; 4× MIC) was “less than 1 × 10^−9” and the “sensitivity of ciprofloxacin-resistant mutants (GyrA S83L or D87Y)” value (E. coli ATCC 25922 [2]; mutants selected with ciprofloxacin 0.05 μg/mL) was “remained sensitive”. For the same compound, the resistance frequency (P. aeruginosa ATCC 27853 [3]) was “less than 1 × 10^−9”, the MIC [4] was 7.5 µg/mL (≈ 16 µM) and the “Gyrase supercoiling inhibition response” value (S. aureus gyrase; S. aureus gyrase, compound 0.0002 μM, source data Fig 2C, listed as 977, 0.0002 µM) was 1.69 and 1.99. The inhibition at 0.0002 µM (S. aureus gyrase; S. aureus gyrase, compound 0.0002 μM, source data Fig 2C, read-out: Gyrase supercoiling inhibition response) was 2.89%, the “Gyrase supercoiling inhibition response” value (S. aureus gyrase; S. aureus gyrase, compound 0.001 μM, source data Fig 2C, listed as 977, 0.001 µM) was 21.39 and 19.98 and the inhibition at 0.001 µM (S. aureus gyrase; S. aureus gyrase, compound 0.001 μM, source data Fig 2C, read-out: Gyrase supercoiling inhibition response) was 26.9%. For the same compound, the “Gyrase supercoiling inhibition response” value (S. aureus gyrase; S. aureus gyrase, compound 0.004 μM, source data Fig 2C, listed as 977, 0.004 µM) was 39.52 and 42.6, the inhibition at 0.004 µM (S. aureus gyrase; S. aureus gyrase, compound 0.004 μM, source data Fig 2C, read-out: Gyrase supercoiling inhibition response) was 46.8% and the “Gyrase supercoiling inhibition response” value (S. aureus gyrase; S. aureus gyrase, compound 0.012 μM, source data Fig 2C, listed as 977, 0.012 µM) was 60.4 and 63.65. For the same compound, the inhibition at 0.012 µM (S. aureus gyrase; S. aureus gyrase, compound 0.012 μM, source data Fig 2C, read-out: Gyrase supercoiling inhibition response) was 57.6%, the “Gyrase supercoiling inhibition response” value (S. aureus gyrase; S. aureus gyrase, compound 0.037 μM, source data Fig 2C, listed as 977, 0.037 µM) was 62.46 and 64.07 and the inhibition at 0.037 µM (S. aureus gyrase; S. aureus gyrase, compound 0.037 μM, source data Fig 2C, read-out: Gyrase supercoiling inhibition response) was 66.3%. The “Gyrase supercoiling inhibition response” value (S. aureus gyrase; S. aureus gyrase, compound 0.111 μM, source data Fig 2C, listed as 977, 0.111 µM) was 73.28 and 76.49, the inhibition at 0.111 µM (S. aureus gyrase; S. aureus gyrase, compound 0.111 μM, source data Fig 2C, read-out: Gyrase supercoiling inhibition response) was 70.2% and the “Gyrase supercoiling inhibition response” value (S. aureus gyrase; S. aureus gyrase, compound 0.333 μM, source data Fig 2C, listed as 977, 0.333 µM) was 87.57 and 81.68. The inhibition at 0.333 µM (S. aureus gyrase; S. aureus gyrase, compound 0.333 μM, source data Fig 2C, read-out: Gyrase supercoiling inhibition response) was 84%, the “Gyrase supercoiling inhibition response” value (S. aureus gyrase; S. aureus gyrase, compound 1 μM, source data Fig 2C, listed as 977, 1 µM) was 89.66 and 78.1 and the inhibition at 1 µM (S. aureus gyrase; S. aureus gyrase, compound 1 μM, source data Fig 2C, read-out: Gyrase supercoiling inhibition response) was 91.1%. The “Gyrase supercoiling inhibition response” value (S. aureus gyrase; S. aureus gyrase, compound 3 μM, source data Fig 2C, listed as 977, 3 µM) was 98.25 and 99.54, the inhibition at 3 µM (S. aureus gyrase; S. aureus gyrase, compound 3 μM, source data Fig 2C, read-out: Gyrase supercoiling inhibition response) was 94.8% and the IC50 (S. aureus gyrase; Supplementary Fig 1G) was 0.009 µM. For the same compound, the MIC (E. coli ATCC 25922 [5]; ATCC25922, 24 h) was 0.015 µg/mL (≈ 0.032 µM), the MIC (E. coli ATCC 25922 [5]; ATCC25922, 288 h) was 0.125 µg/mL (≈ 0.267 µM) and the MIC (P. aeruginosa ATCC 27853 [6]) was 0.125 µg/mL (≈ 0.267 µM). The IC50 ([7]; Fig. 6, read-out: IC50 M120K gyrase supercoiling) was 116 µM, the “Gyrase supercoiling inhibition response” value [7, 12] was 22.36 and 14.93 and the “Gyrase supercoiling inhibition response” value [7, 13] was 30.98 and 24.28. For the same compound, the “Gyrase supercoiling inhibition response” value [7, 14] was 42.55 and 34.32, the “Gyrase supercoiling inhibition response” value [7, 15] was 58.34 and 49.21 and the “reduction in inhibition potency compared to wildtype gyrase” value ([7]; GyrA M120K vs WT) was > 500 fold. The inhibition at 4.444 µM ([7]; read-out: Gyrase supercoiling inhibition response, GyrA M120K gyrase, compound 4.444 µM, source data Fig 6A/6B) was 20.2%, the inhibition at 13.333 µM ([7]; read-out: Gyrase supercoiling inhibition response, GyrA M120K gyrase, compound 13.333 µM, source data Fig 6A/6B) was 27.2% and the inhibition at 40 µM ([7]; read-out: Gyrase supercoiling inhibition response, GyrA M120K gyrase, compound 40 µM, source data Fig 6A/6B) was 34.7%. For the same compound, the inhibition at 120 µM ([7]; read-out: Gyrase supercoiling inhibition response, GyrA M120K gyrase, compound 120 µM, source data Fig 6A/6B) was 56.3%, the MIC (P. aeruginosa BAA 2794) was 0.125 µg/mL (≈ 0.267 µM) and the “MIC90 against diverse global isolates” value (A. baumannii) was 1 µg/mL (≈ 2.13 µM). The MIC (A. baumannii ATCC 19606 [8]; ATCC19606) was 0.125 µg/mL (≈ 0.267 µM), the MIC90 (A. baumannii ATCC 19606 [8]; ATCC19606, read-out: MIC 90 in (μg/mL), A. baumannii ATCC 19606 (WT)) was 0.15 µg/mL (≈ 0.32 µM) and the MIC (S. aureus ATCC 29213) was 0.007 µg/mL (≈ 0.0149 µM). The MIC (K. pneumoniae BAA 2782) was 0.125 µg/mL (≈ 0.267 µM), the MIC (P. aeruginosa BAA 2797) was 0.25 µg/mL (≈ 0.534 µM) and the IC50 ([9]; Fig. 6, read-out: IC50 D82N gyrase supercoiling) was 8.07 µM. The “Gyrase supercoiling inhibition response” value [9, 12] was 46.06 and 47.14, the “Gyrase supercoiling inhibition response” value [9, 13] was 41.37 and 59.15 and 62.03 and the “Gyrase supercoiling inhibition response” value [9, 14] was 73.59 and 74.94. For the same compound, the “Gyrase supercoiling inhibition response” value [9, 15] was 87.19 and 87.16, the “reduction in inhibition potency compared to wildtype gyrase” value ([9]; GyrA D82N vs WT) was > 500 fold and the inhibition at 4.444 µM ([9]; read-out: Gyrase supercoiling inhibition response, GyrA D82N gyrase, compound 4.444 µM, source data Fig 6A/6B) was 30.7%. It also gave an inhibition at 40 µM ([9]; read-out: Gyrase supercoiling inhibition response, GyrA D82N gyrase, compound 40 µM, source data Fig 6A/6B) of 55.7%, an inhibition at 120 µM ([9]; read-out: Gyrase supercoiling inhibition response, GyrA D82N gyrase, compound 120 µM, source data Fig 6A/6B) of 78.8% and an MIC [10] of 0.03 µg/mL (≈ 0.064 µM). The MIC (E. faecalis ATCC 29212) was 0.03 µg/mL (≈ 0.064 µM), the “MIC90 against diverse global isolates” value (P. aeruginosa) was 1 µg/mL (≈ 2.13 µM) and the “type of DNA breaks induced” value (E. coli topoisomerase IV) was “single-strand DNA breaks”. It also gave an MIC90 ([11]; ATCC19606, read-out: MIC 90 in (μg/mL), resistant mutant colony 1) of 0.6 µg/mL (≈ 1.28 µM), an MIC90 ([11]; ATCC19606, read-out: MIC 90 in (μg/mL), resistant mutant colony 2) of 0.07 µg/mL (≈ 0.149 µM) and an MIC90 ([11]; ATCC19606, read-out: MIC 90 in (μg/mL), resistant mutant colony 3) of 0.07 µg/mL (≈ 0.149 µM). For the same compound, the MIC90 ([11]; ATCC19606, read-out: MIC 90 in (μg/mL), resistant mutant colony 4) was 0.07 µg/mL (≈ 0.149 µM) and the MIC90 ([11]; ATCC19606, read-out: MIC 90 in (μg/mL), resistant mutant colony 5) was 0.3 µg/mL (≈ 0.64 µM).
